ChEMBL document CHEMBL4041531, “Design, synthesis, and biological evaluation of novel 1-oxo-1,2,3,4-tetrahydropyrazino[1,2-a]indole-3-carboxamide analogs in MCF-7 and MDA-MB-468 breast cancer cell lines” (2017)
Active and inactive are the calls of the source. The rule behind the calls is not given here.

Key:
[1] = tested on: MCF7; experiment: Cytotoxicity against human MCF7 cells assessed as cell viability at 30 uM after 48 hrs by MTT assay relative to control; format: functional; conditions: MCF7, 48 h, read-out: Activity
[2] = tested on: MDA-MB-468; experiment: Cytotoxicity against gefitinib-resistant human MDA-MB-468 cells assessed as cell viability at 30 uM after 48 hrs by MTT assay relative to control; format: functional; conditions: MDA-MB-468, 48 h, read-out: Activity
[3] = tested on: MCF7; experiment: Cytotoxicity against human MCF7 cells assessed as cell viability at 10 uM after 48 hrs by MTT assay relative to control; format: functional; conditions: MCF7, 48 h, read-out: Activity
[4] = tested on: MDA-MB-468; experiment: Cytotoxicity against gefitinib-resistant human MDA-MB-468 cells assessed as cell viability at 10 uM after 48 hrs by MTT assay relative to control; format: functional; conditions: MDA-MB-468, 48 h, read-out: Activity
[5] = Selectivity ratio of GI50 for human MCF7 cells to GI50 for gefitinib-resistant human MDA-MB-468 cells; format: functional
[6] = tested on: MDA-MB-468; experiment: Cytotoxicity against gefitinib-resistant human MDA-MB-468 cells assessed as cell viability at 10 uM after 48 hrs in presence of 1 uM gefitinib by MTT assay relative to control; format: functional
[7] = tested on: MCF7; experiment: Cytotoxicity against human MCF7 cells assessed as reduction in cell viability after 48 hrs by MTT assay; format: functional; conditions: MCF7, 48 h
[8] = tested on: MDA-MB-468; experiment: Cytotoxicity against gefitinib-resistant human MDA-MB-468 cells assessed as cell viability at 1 uM after 48 hrs in presence of 1 uM gefitinib by MTT assay relative to control; format: functional; conditions: MDA-MB-468, 48 h, read-out: Activity
[9] = tested on: MDA-MB-468; experiment: Cytotoxicity against gefitinib-resistant human MDA-MB-468 cells assessed as cell viability at 1 uM after 48 hrs in presence of 10 uM gefitinib by MTT assay relative to control; format: functional
[10] = tested on: MDA-MB-468; conditions: Homo sapiens, at 10 µM
Description: Inhibition of EGFR in gefitinib-resistant human MDA-MB-468 cells assessed as reduction in Akt phosphorylation at 10 uM after 18 hrs by Western blot method

[11] = tested on: MCF7; experiment: Cytotoxicity against human MCF7 cells assessed as reduction in cell viability at 1 uM after 48 hrs in presence of 1 to 10 uM gefitinib by MTT assay; format: functional, cell-based
[12] = tested on: MDA-MB-468; experiment: Cytotoxicity against gefitinib-resistant human MDA-MB-468 cells assessed as cell viability at 3 uM after 48 hrs in presence of 3 uM gefitinib by MTT assay relative to control; format: functional; conditions: MDA-MB-468, 48 h, read-out: Activity
[13] = tested on: MDA-MB-468; experiment: Cytotoxicity against gefitinib-resistant human MDA-MB-468 cells assessed as cell viability at 1 uM after 48 hrs in presence of 3 uM gefitinib by MTT assay relative to control; format: functional
[14] = tested on: MDA-MB-468; experiment: Cytotoxicity against gefitinib-resistant human MDA-MB-468 cells assessed as reduction in cell viability after 48 hrs by MTT assay; format: functional; conditions: MDA-MB-468, 48 h
[15] = tested on: MDA-MB-468; experiment: Cytotoxicity against gefitinib-resistant human MDA-MB-468 cells assessed as cell viability at 3 uM after 48 hrs in presence of 1 uM gefitinib by MTT assay relative to control; format: functional
[16] = tested on: MCF7; experiment: Cytotoxicity against human MCF7 cells assessed as cell viability at 3 uM after 48 hrs by MTT assay relative to control; format: functional; conditions: MCF7, 48 h, read-out: Activity
[17] = tested on: MDA-MB-468; experiment: Cytotoxicity against gefitinib-resistant human MDA-MB-468 cells assessed as cell viability at 10 uM after 48 hrs in presence of 10 uM gefitinib by MTT assay relative to control; format: functional; conditions: MDA-MB-468, 48 h, read-out: Activity
[18] = tested on: MCF7; experiment: Cytotoxicity against human MCF7 cells assessed as cell viability at 1 uM after 48 hrs by MTT assay relative to control; format: functional; conditions: MCF7, 48 h, read-out: Activity
[19] = tested on: MDA-MB-468; experiment: Cytotoxicity against gefitinib-resistant human MDA-MB-468 cells assessed as cell viability at 3 uM after 48 hrs in presence of 10 uM gefitinib by MTT assay relative to control; format: functional
[20] = tested on: MDA-MB-468; experiment: Cytotoxicity against gefitinib-resistant human MDA-MB-468 cells assessed as cell viability at 10 uM after 48 hrs in presence of 3 uM gefitinib by MTT assay relative to control; format: functional
[21] = tested on: MDA-MB-468; conditions: Homo sapiens, at 10 µM; remark: listed apart in the source
Description: Inhibition of EGFR in gefitinib-resistant human MDA-MB-468 cells assessed as reduction in Akt phosphorylation at 10 uM after 6 hrs by Western blot method

[22] = tested on: MCF7; experiment: Potency index, ratio of gefitinib GI50 to compound GI50 for human MCF7 cells; format: functional

| Compound | viability at 30 µM [1] | viability at 30 µM [2] | GI50 [14] | also measured |
| --- | --- | --- | --- | --- |
| O=C1N[C@H](C(=O)Nc2ccccc2)Cn2c1cc1ccccc12 | 87.3% | 74.5% | – | – |
| CC(C)NC(=O)[C@@H]1Cn2c(cc3ccccc32)C(=O)N1 | 84.4% | 88.1% | – | – |
| COc1cccc(CNC(=O)[C@@H]2Cn3c(cc4ccccc43)C(=O)N2)c1 | 68.6% | 70.5% | – | – |
| O=C1N[C@H](C(=O)NCc2cccc(C(F)(F)F)c2)Cn2c1cc1ccccc12 | 59.1% | 62.4% | – | – |
| O=C1N[C@H](C(=O)NCc2ccc(F)cc2)Cn2c1cc1ccccc12 | 59.7% | 63.1% | – | – |
| CNC(=O)[C@@H]1Cn2c(cc3ccccc32)C(=O)N1 | 77.5% | 82.6% | – | – |
| COC(=O)[C@@H]1Cn2c(cc3ccccc32)C(=O)N1Cc1ccccc1 | – | – | – | viability at 10 µM [3]: 92.6%; viability at 10 µM [4]: 98.8% |
| CCCNC(=O)[C@@H]1Cn2c(cc3ccccc32)C(=O)N1 | 83.9% | 88% | – | – |
| O=C(NCc1ccco1)[C@@H]1Cn2c(cc3ccccc32)C(=O)N1Cc1ccccc1 | – | – | 5.2 µM | RatioGI50 [5]: 3.7; Activity [6]: 24.3%; viability at 10 µM [3]: 58.5%; GI50 [7]: 19.3 µM; viability at 1 µM [8]: 66.3%; viability at 10 µM [4]: 23.3%; Activity [9]: 40.8%; inhibition [10]: Active; Activity [11]: Active; viability at 3 µM [12]: 34.3%; Activity [13]: 61%; Activity [15]: 40.5%; viability at 3 µM [16]: 62.5%; viability at 10 µM [17]: 15.6%; viability at 1 µM [18]: 93.6%; Activity [19]: 23.8%; Activity [20]: 19.6%; inhibition [21]: Active |
| O=C1N[C@@H](C(=O)NCc2ccco2)Cn2c1cc1ccccc12 | 82.5% | 21.2% | 15.9 µM | – |
| COc1cc2ncnc(Nc3ccc(F)c(Cl)c3)c2cc1OCCCN1CCOCC1 [GEFITINIB] | 16.2% | 6.7% | 9.7 µM | viability at 10 µM [3]: 89.7%; GI50 [7]: 20.8 µM; viability at 10 µM [4]: 49.1%; viability at 3 µM [16]: 72.6%; viability at 1 µM [18]: 73.1% |
| O=C1N[C@H](C(=O)NCc2cccc(Cl)c2)Cn2c1cc1ccccc12 | 61.7% | 34.8% | 23.4 µM | – |
| Cc1ccc(CNC(=O)[C@@H]2Cn3c(cc4ccccc43)C(=O)N2)cc1 | 68% | 61.5% | – | – |
| Nc1ccc(CNC(=O)[C@@H]2Cn3c(cc4ccccc43)C(=O)N2)cc1 | 76% | 65.4% | – | – |
| Cc1ccc(CNC(=O)[C@@H]2Cn3c(cc4ccccc43)C(=O)N2)o1 | 60.2% | 43% | – | – |
| Cc1cccc(CNC(=O)[C@@H]2Cn3c(cc4ccccc43)C(=O)N2)c1 | 78.1% | 66.3% | – | – |
| O=C(NCc1cccs1)[C@@H]1Cn2c(cc3ccccc32)C(=O)N1Cc1ccccc1 | – | – | 3.8 µM | viability at 10 µM [3]: 35.8%; GI50 [7]: 4.6 µM; viability at 10 µM [4]: 18.5%; inhibition [10]: Active; RatioGI50 [22]: 4.5; inhibition [21]: Active |
| CN1C(=O)c2cc3ccccc3n2C[C@H]1C(=O)NCc1ccco1 | – | – | 15 µM | viability at 10 µM [3]: 54.1%; viability at 10 µM [4]: 56.1% |
| O=C1N[C@H](C(=O)NCc2ccco2)Cn2c1cc1ccccc12 | 62.1% | 39.7% | 23.1 µM | – |

| Compound | viability at 30 µM [1] | viability at 30 µM [2] | GI50 [14] | also measured |
| --- | --- | --- | --- | --- |
| Nc1cccc(CNC(=O)[C@@H]2Cn3c(cc4ccccc43)C(=O)N2)c1 | 70.5% | 67.7% | – | – |
| O=C1N[C@H](C(=O)O)Cn2c1cc1ccccc12 | 99.7% | 76.2% | – | – |
| O=C1N[C@H](C(=O)NC2CCCCC2)Cn2c1cc1ccccc12 | 80.7% | 73.1% | – | – |
| O=C1N[C@H](C(=O)NCCc2ccc(O)cc2)Cn2c1cc1ccccc12 | 85.5% | 63.1% | – | – |
| O=C1N[C@H](C(=O)NCc2ccc(Cl)cc2)Cn2c1cc1ccccc12 | 66.1% | 60.3% | – | – |
| COC(=O)[C@H]1Cn2c(cc3ccccc32)C(=O)N1 | 79.7% | 82.4% | – | – |
| C=CCNC(=O)[C@@H]1Cn2c(cc3ccccc32)C(=O)N1 | 104% | 94.7% | – | – |
| COC(=O)[C@@H]1Cn2c(cc3ccccc32)C(=O)N1 | 85.1% | 102% | – | – |
| COc1ccc(CNC(=O)[C@@H]2Cn3c(cc4ccccc43)C(=O)N2)cc1 | 68.8% | 74.7% | – | – |
| O=C1N[C@H](C(=O)NCc2cccs2)Cn2c1cc1ccccc12 | 61.7% | 39.2% | – | – |
| O=C1N[C@H](C(=O)NCc2ccc(C(F)(F)F)cc2)Cn2c1cc1ccccc12 | 60.2% | 70.5% | – | – |
| CCCCCCNC(=O)[C@@H]1Cn2c(cc3ccccc32)C(=O)N1 | 71.2% | 61.8% | – | – |
| O=C1N[C@@H](C(=O)NCc2ccccc2)Cn2c1cc1ccccc12 | 61.8% | 45% | 24 µM | – |
| O=C(NCc1cccc(Cl)c1)[C@@H]1Cn2c(cc3ccccc32)C(=O)N1Cc1ccccc1 | – | – | 9.5 µM | viability at 10 µM [3]: 38.2%; GI50 [7]: 8.3 µM; viability at 10 µM [4]: 46.7% |
| O=C(NCc1ccccc1)[C@@H]1Cn2c(cc3ccccc32)C(=O)N1Cc1ccccc1 | – | – | 7.6 µM | viability at 10 µM [3]: 47.1%; GI50 [7]: 9.6 µM; viability at 10 µM [4]: 28% |
| C=CCN1C(=O)c2cc3ccccc3n2C[C@H]1C(=O)NCc1ccco1 | – | – | 18.5 µM | viability at 10 µM [3]: 98.2%; viability at 10 µM [4]: 58.4% |
| Cc1ccc(CNC(=O)[C@@H]2Cn3c(cc4ccccc43)C(=O)N2Cc2ccccc2)o1 | – | – | – | viability at 10 µM [3]: 68.7%; viability at 10 µM [4]: 63.1% |
| O=C1N[C@H](C(=O)NCc2ccccc2)Cn2c1cc1ccccc12 | 71.4% | 48.8% | 28.9 µM | – |
